Source: patent US20220259164A1, “USE OF AMINOTHIOL COMPOUNDS AS CEREBRAL NERVE OR HEART PROTECTIVE AGENT” (SHANGHAI KECHOW PHARMA, INC., priority 2019, published 2022)
Where “and” joins values, the source holds several entries; their conditions need not be identical. Identical values can stand only once. Where a SMILES comes first, the peptide text is derived from it. [ ]: non-standard residue; d: D form. NMeC = CN[C@@H](CS)C(=O)O

How the values were obtained:
[1] = test system: SD rat cerebral ischemia reperfusion injury model (MCAO); experiment: TTC staining and cerebral infarction area in rat ischemic stroke model (MCAO); assay type: in vivo; conditions: for Cerebral infarction area: individual rats
Description: Healthy male SPF grade SD rats (body weight 250-300 g) were selected. (1) The rats were anesthetized, the skin on the neck was prepared, and the body temperature was maintained at 37±0.5° C. (2) A midline neck incision was made to expose the right common carotid artery, internal carotid artery and external carotid artery. A 6-0 silk thread was used to ligate the distal end of the external carotid artery at 4 mm from the bifurcation of the common carotid artery, another 6-0 silk thread was inserted at the external carotid artery, and a slipknot was tied near the bifurcation of the common carotid artery. (3) An arterial clamp was used to clamp the common carotid artery. A small opening was cut on the external carotid artery at 3 mm from the bifurcation of the common carotid artery, and a 0.33 mm diameter nylon thread with a treated head end was inserted through the small opening, entered the internal carotid artery, and was inserted inward to the middle cerebral artery, wherein the insertion depth of the nylon thread was about 16±1 mm from the bifurcation of the common carotid artery. (4) The thread embolism was removed 90 min after ischemia, the proximal end of the external artery was ligated with a 6-0 silk thread, the neck wound was sutured with a 3-0 silk thread, the wound was disinfected with povidone iodine, the rats were placed on a heating pad, and after being awake, they were placed in a constant temperature rearing box for rearing. […] After the rats were anesthetized, the brain tissues were taken from the rats, placed in a refrigerator and frozen at -20° C. for 30 min. 1% TTC (W/V) was prepared with PBS and placed in a water bath at 37° C. until the TTC was dissolved, and the frozen brain tissue was sliced, placed in 10 ml of the TTC solution and incubated at 37° C. for 10 min. The brain slices were turned from time to time to make the tissue evenly stained. Normal brain tissue was bright red after staining, whereas the infarction region was pale white in color or light white in a black and white image. In addition, a software was used to measure and statistically analyze the infarction area. In a manner same as in Example 1, experimental animals were selected, except that the experiment was divided into seven groups (i.e., groups […], and G, among which groups C, D, and E were given different dosages of administration from Example 1, group F was given edaravone, and group G was given amifostine).

[2] = Body weight of cisplatin-induced SD rats; assay type: in vivo, rat; conditions: 30 min prior to cisplatin 5 mg/kg i.p.: compound B 200 mg/kg i.p., compound A 800 mg/kg p.o., amifostine 200 mg/kg i.p.; weighed daily
Description: Healthy male SPF grade SD rats (body weight 250-300 g) were selected. Cisplatin+compound B group: 5 mg/kg i.p.+compound B at 200 mg/kg i.p., with compound B being administered 30 min prior to cisplatin administration Cisplatin+amifostine group: 5 mg/kg i.p.+AMI at 200 mg/kg i.p., with AMI being administered 30 min prior to cisplatin administration Cisplatin+compound A group: 5 mg/kg i.p.+compound A at 800 mg/kg p.o., with compound A being administered 30 min prior to cisplatin administration (1) The SD rats used in the experiment were weighed, labeled, and evenly divided into 5 groups, with 3 SD rats in each group. (2) The compound B, compound A, and AMI groups were respectively administered at the planned concentrations. […] (3) The rats were weighed and recorded daily, and on day 5, blood was taken from the intraocular canthus of the SD rats and placed in an anticoagulant tube.

[3] = test system: bleomycin (BLM)-induced scleroderma mouse model; experiment: Hydroxyproline level in skin lesion, BLM-induced scleroderma mouse model; assay type: in vivo, mice; conditions: compound A (hydrochloride) 600 mg/kg/d by gavage or compound B (trifluoroacetate) 200 mg/kg/d i.p., 28 days with BLM
From the text: (§1) Materials: C57BL/6 female mice, weighing 20-25 g, were purchased from Shanghai SLAC Laboratory Animal Co., Ltd. Using a random number table method, 24 mice were divided into a blank control group (1), a scleroderma model group (2), a scleroderma+compound A treatment group (3), and a scleroderma+compound B treatment group (4), with 6 mice in each group. Bleomycin (BLM) was purchased from Sigma. An H-E staining kit was purchased from Beijing Solarbio Science & Technology Co., Ltd. Compound A used in this example was in the form of a hydrochloride thereof, and compound B was in the form of a trifluoroacetate thereof.
Method: The intended injection site (area 1 cm^2) of the mice was shaved using an electric shaver. […] Conventional iodine tincture was used to disinfect the back skin of the mice, and a local diseased skin tissue was surgically cut, fixed in 4% paraformaldehyde, embedded in paraffin, sectioned, and analyzed by H-E staining. […]
Method: Part of the skin lesion tissue of the mice was taken, and the contents of hydroxyproline and hydrogen peroxide in the skin lesion region were detected according to the requirements in the kit instructions.

[4] = test system: bleomycin (BLM)-induced scleroderma mouse model; experiment: Dermal fibrosis in bleomycin (BLM)-induced scleroderma mouse model (H-E staining); assay type: in vivo, mice; conditions: compound A (hydrochloride) 600 mg/kg/d by gavage or compound B (trifluoroacetate) 200 mg/kg/d i.p., 28 days with BLM; compared with BLM model group
From the text: as §1
Method: The intended injection site (area 1 cm^2) of the mice was shaved using an electric shaver. The mice in groups (1) and (2) were intraperitoneally injected with PBS, the mice in group (3) were given compound A (600 mg/kg/d, dissolved in PBS) by gavage, and the mice in group (4) were intraperitoneally injected with compound B (200 mg/kg/d, dissolved in PBS). Immediately thereafter, the mice in group (1) were injected with PBS subcutaneously on the back, and the mice in groups (2) and (4) were injected with BLM (1 mg/ml, dissolved in PBS) subcutaneously on the back; and 15 min later, the mice in group (3) were injected with BLM (1 mg/ml, dissolved in PBS) subcutaneously on the back. After 28 days of continuous administration once a day, the animals were sacrificed on day 29 by cervical dislocation. Conventional iodine tincture was used to disinfect the back skin of the mice, and a local diseased skin tissue was surgically cut, fixed in 4% paraformaldehyde, embedded in paraffin, sectioned, and analyzed by H-E staining.

[5] = Example 2 group C: compound B (trifluoroacetate) 100 mg/kg i.p. 5 min before reperfusion, 100 mg/kg
[6] = Example 2 group D: compound A (trifluoroacetate) 400 mg/kg p.o. 2.5 h before reperfusion, 400 mg/kg
[7] = Example 2 group E: compound A (trifluoroacetate) 800 mg/kg p.o. 2.5 h before reperfusion, 800 mg/kg

| SMILES | % Improvement of cerebral infarction area ([1]; Example 1 group C: compound B (trifluoroacetate) 200 mg/kg i.p. 5 min before reperfusion, 200 mg/kg) [%] | Cerebral infarction area ([1]; Example 1 group C: compound B (trifluoroacetate) 200 mg/kg i.p. 5 min before reperfusion, 24 h, 200 mg/kg) | % Improvement of cerebral infarction area ([1]; Example 1 group D: compound B (trifluoroacetate) 200 mg/kg i.p. during ischemia and 200 mg/kg i.p. 5 min before reperfusion) [%] | Cerebral infarction area ([1]; Example 1 group D: compound B (trifluoroacetate) 200 mg/kg i.p. during ischemia and 200 mg/kg i.p. 5 min before reperfusion, 24 h) | % Improvement of cerebral infarction area [1, 5] [%] | Cerebral infarction area [1, 5] | Change in body weight of cisplatin-induced SD rats [2] | Level of hydroxyproline in the skin lesion site [3] | Collagen in the dermis and fat layer (H-E staining) [4] | Thickness of the dermis in the skin lesion area [4] | % Improvement of cerebral infarction area ([1]; Example 1 group E: compound A (trifluoroacetate) 1600 mg/kg p.o. 2.5 h before reperfusion, 1600 mg/kg) [%] | Cerebral infarction area ([1]; Example 1 group E: compound A (trifluoroacetate) 1600 mg/kg p.o. 2.5 h before reperfusion, 24 h, 1600 mg/kg) | % Improvement of cerebral infarction area [1, 6] [%] | Cerebral infarction area [1, 6] | % Improvement of cerebral infarction area [1, 7] [%] | Cerebral infarction area [1, 7] |
| --- | --- | --- | --- | --- | --- | --- | --- | --- | --- | --- | --- | --- | --- | --- | --- | --- |
| CNC(=O)[C@H](CS)NC(=O)[C@H](CS)NC(=O)[C@H](CS)NC [Compound B, (R)-3-mercapto-N—((R)-3-mercapto-1-(((R)-3-mercapto-1-(methylamino)-1-oxoprop-2-yl)amino)-1-oxoprop-2-yl)-2-(methylamino)propionamide] (H-[NMeC]-Cys-Cys-NHMe) | 62.5 | 67.44 mm^3 and 67.69 mm^3 and 32.84 mm^3 and 23.4 mm^3 and 105.9 mm^3 | 44.4 | 67.53 mm^3 and 105.5 mm^3 | 59.5 | 0 mm^3 and 32.568 mm^3 and 45.956 mm^3 and 21.529 mm^3 and 104.008 mm^3 and 85.208 mm^3 | the body weight increased rather than decrease | down-regulated | collagen proliferation in the dermis in the compound B treatment group was improved | reduced (p<0.01) |  |  |  |  |  |  |
| CNC(=O)[C@H](CS)NC(=O)[C@H](CS)NC [Compound A, (R)-3-mercapto-N—((R)-3-mercapto-1-(methylamino)-1-oxoprop-2-yl)-2-(methylamino)propionamide] (H-[NMeC]-Cys-NHMe) |  |  |  |  |  |  | the degree of decrease was significantly better than that of the cisplatin group | down-regulated | the collagen thickness in the dermis was significantly reduced and the fat layer was significantly thickened | could better reduce the thickness of the dermis at the skin lesion site | 83.9 | 40.19 mm^3 and 26.33 mm^3 and 9.18 mm^3 | 72.97 | 25.16 mm^3 and 11.23 mm^3 and 20.59 mm^3 and 15.48 mm^3 and 38.04 mm^3 and 82.75 mm^3 | 87.32 | 14.23 mm^3 and 0 mm^3 (2×) and 16.93 mm^3 and 12.31 mm^3 and 47.18 mm^3 |
